# Test results: PMC8286840, “Identifying SARS-CoV-2 antiviral compounds by screening for small molecule inhibitors of Nsp3 papain-like protease” (Biochemical Journal, 2021)
# Structures can show the parent of a compound that is named as a salt. Where two headings read alike, the source gives them in different places. Where a SMILES comes first, the peptide text is derived from it. [ ]: non-standard residue; d: D form. αMeP = C[C@@]1(C(=O)O)CCCN1
# Legend:
# [1] = biological target: T1, SARS-CoV-2 PLpro (nsp3 1564–1878) (Severe acute respiratory syndrome coronavirus 2, UniProt P0DTD1); assay: biochemical; parameters: FRET-quenched peptide (Pro3) cleavage by PLpro, 10 min pre-incubation, slope over 20 min, normalised to no-compound control; conditions: high concentration screen
# [2] = biological target: T1, SARS-CoV-2 PLpro (nsp3 1564–1878); assay: biochemical; parameters: FRET-quenched peptide (Pro3) cleavage by PLpro, 10 min pre-incubation, slope over 20 min, normalised to no-compound control; conditions: low concentration screen
# [3] = Well no.=2296, read-out: % of control remaining
# [4] = Well no.=6373, read-out: % of control remaining
# [5] = Well no.=6438, read-out: % of control remaining
# [6] = Well no.=8058, read-out: % of control remaining
# [7] = Well no.=4942, read-out: % of control remaining
# [8] = Well no.=6375, read-out: % of control remaining
# [9] = Well no.=1187, read-out: % of control remaining
# [10] = Well no.=4815, read-out: % of control remaining
# [11] = Well no.=4762, read-out: % of control remaining
# [12] = Well no.=8493, read-out: % of control remaining
# [13] = Well no.=1516, read-out: % of control remaining
# [14] = Well no.=2006, read-out: % of control remaining
# [15] = Well no.=6715, read-out: % of control remaining
# [16] = Well no.=1333, read-out: % of control remaining
# [17] = Well no.=7663, read-out: % of control remaining
# [18] = Well no.=4979, read-out: % of control remaining
# [19] = Well no.=1197, read-out: % of control remaining
# [20] = read-out: % of control remaining, Well no.=4642
# [21] = Well no.=1985, read-out: % of control remaining
# [22] = Well no.=8554, read-out: % of control remaining
# [23] = Well no.=1630, read-out: % of control remaining
# [24] = Well no.=1570, read-out: % of control remaining
# [25] = Well no.=3188, read-out: % of control remaining
# [26] = Well no.=3899, read-out: % of control remaining
# [27] = Well no.=3469, read-out: % of control remaining
# [28] = Well no.=7467, read-out: % of control remaining
# [29] = Well no.=2008, read-out: % of control remaining
# [30] = Well no.=6571, read-out: % of control remaining
# [31] = Well no.=4916, read-out: % of control remaining
# [32] = Well no.=4866, read-out: % of control remaining
# [33] = Well no.=291, read-out: % of control remaining
# [34] = Well no.=7365, read-out: % of control remaining
# [35] = Well no.=3376, read-out: % of control remaining
# [36] = Well no.=3207, read-out: % of control remaining
# [37] = Well no.=3209, read-out: % of control remaining
smiles,measurement,setting,value
O=C(CCCN1CCC(O)(c2cccc(C(F)(F)F)c2)CC1)c1ccc(F)cc1 [Trifluperidol],remaining activity at 3.75 µM,[1]; [3],96.6%
same,remaining activity at 1.25 µM,[2]; [3],95.3%
CN(C)CCCN1c2ccccc2Sc2ccc(C(F)(F)F)cc21 [Triflupromazine (hydrochloride)],remaining activity at 3.75 µM,[1]; [4],103%
same,remaining activity at 1.25 µM,[2]; [4],105%
O=c1[nH]c(=O)n([C@H]2C[C@H](O)[C@@H](CO)O2)cc1C(F)(F)F [Trifluridine],remaining activity at 3.75 µM,[1]; [5],98.3%
same,remaining activity at 3.75 µM,[1]; [6],86.7%
same,remaining activity at 1.25 µM,[2]; [5],98%
same,remaining activity at 1.25 µM,[2]; [6],85.9%
CC(=O)Oc1cc(C(F)(F)F)ccc1C(=O)O [Triflusal],remaining activity at 3.75 µM,[1]; [7],96.4%
same,remaining activity at 1.25 µM,[2]; [7],98.7%
OC(CCN1CCCCC1)(c1ccccc1)C1CCCCC1 (centres unmarked) [Trihexyphenidyl (hydrochloride)],remaining activity at 3.75 µM,[1]; [8],105%
same,remaining activity at 1.25 µM,[2]; [8],105%
OC(CCN1CCCCC1)(c1ccccc1)C1CCCCC1 (centres unmarked) [Trihexyphenidyl hydrochloride],remaining activity at 3.75 µM,[1]; [9],92%
same,remaining activity at 1.25 µM,[2]; [9],92.8%
C[C@]12CC[C@H]3[C@@H](CC[C@@]45O[C@@H]4C(O)=C(C#N)C[C@]35C)[C@@H]1CC[C@@H]2O [Trilostane],remaining activity at 3.75 µM,[1]; [10],107%
same,remaining activity at 1.25 µM,[2]; [10],101%
CCC(COC(=O)c1cc(OC)c(OC)c(OC)c1)(c1ccccc1)N(C)C (centres unmarked) [Trimebutine],remaining activity at 3.75 µM,[1]; [11],105%
same,remaining activity at 1.25 µM,[2]; [11],103%
COc1cc(C(=O)NCc2ccc(OCCN(C)C)cc2)cc(OC)c1OC [Trimethobenzamide hydrochloride],remaining activity at 3.75 µM,[1]; [12],91.3%
same,remaining activity at 1.25 µM,[2]; [12],90.1%
COc1cc(Cc2cnc(N)nc2N)cc(OC)c1OC [Trimethoprim],remaining activity at 3.75 µM,[1]; [13],94.5%
same,remaining activity at 3.75 µM,[1]; [14],97.8%
same,remaining activity at 1.25 µM,[2]; [13],96%
same,remaining activity at 1.25 µM,[2]; [14],99.3%
CC(CN(C)C)CN1c2ccccc2CCc2ccccc21 (centres unmarked) [Trimipramine (maleate)],remaining activity at 3.75 µM,[1]; [15],100%
same,remaining activity at 1.25 µM,[2]; [15],106%
CC(CN(C)C)CN1c2ccccc2CCc2ccccc21 (centres unmarked) [Trimipramine maleate],remaining activity at 3.75 µM,[1]; [16],102%
same,remaining activity at 1.25 µM,[2]; [16],104%
CN(C)CCN(Cc1ccccc1)c1ccccn1 [Tripelennamine (hydrochloride)],remaining activity at 3.75 µM,[1]; [17],98.8%
same,remaining activity at 1.25 µM,[2]; [17],99.1%
CN(C)CCN(Cc1ccccc1)c1ccccn1 [Tripelennamine HCl],remaining activity at 3.75 µM,[1]; [18],93%
same,remaining activity at 1.25 µM,[2]; [18],94.3%
Cc1ccc(/C(=C\CN2CCCC2)c2ccccn2)cc1 [Triprolidine hydrochloride],remaining activity at 3.75 µM,[1]; [19],90.1%
same,remaining activity at 1.25 µM,[2]; [19],87.7%
CC(C)[C@]12O[C@H]1[C@@H]1O[C@]13[C@]1(O[C@H]1C[C@H]1C4=C(CC[C@@]13C)C(=O)OC4)[C@@H]2O [Triptolide],remaining activity at 3.75 µM,[1]; [20],98.1%
same,remaining activity at 1.25 µM,[2]; [20],99.8%
CC(C)C[C@H](NC(=O)[C@@H](Cc1c[nH]c2ccccc12)NC(=O)[C@H](Cc1ccc(O)cc1)NC(=O)[C@H](CO)NC(=O)[C@H](Cc1c[nH]c2ccccc12)NC(=O)[C@H](Cc1c[nH]cn1)NC(=O)[C@@H]1CCC(=O)N1)C(=O)N[C@@H](CCCNC(=N)N)C(=O)N1CCC[C@H]1C(=O)NCC(N)=O [Triptorelin],remaining activity at 3.75 µM,[1]; [21],101%
same,remaining activity at 1.25 µM,[2]; [21],100%
C[C@@]1(C(=O)N[C@@H](CCC(=O)O)C(=O)O)CCCN1C(=O)CN [Trofinetide] (H-Gly-[αMeP]-Glu-OH),remaining activity at 3.75 µM,[1]; [22],98.6%
same,remaining activity at 1.25 µM,[2]; [22],108%
Cc1c(C)c2c(c(C)c1O)CCC(C)(COc1ccc(CC3SC(=O)NC3=O)cc1)O2 (centres unmarked) [Troglitazone],remaining activity at 3.75 µM,[1]; [23],99.4%
same,remaining activity at 1.25 µM,[2]; [23],101%
CO[C@H]1C[C@H](O[C@H]2[C@H](C)[C@@H](O[C@@H]3O[C@H](C)C[C@H](N(C)C)[C@H]3OC(C)=O)[C@@H](C)C[C@@]3(CO3)C(=O)[C@H](C)[C@@H](OC(C)=O)[C@@H](C)[C@@H](C)OC(=O)[C@@H]2C)O[C@@H](C)[C@@H]1OC(C)=O [Troleandomycin],remaining activity at 3.75 µM,[1]; [24],99.5%
same,remaining activity at 3.75 µM,[1]; [25],103%
same,remaining activity at 1.25 µM,[2]; [24],96.7%
same,remaining activity at 1.25 µM,[2]; [25],106%
Cc1c(C)c2c(c(C)c1O)CCC(C)(C(=O)O)O2 (centres unmarked) [Trolox],remaining activity at 3.75 µM,[1]; [26],99.4%
same,remaining activity at 1.25 µM,[2]; [26],101%
CN1[C@@H]2CC[C@H]1CC(O)C2 (some centres unmarked) [Tropine],remaining activity at 3.75 µM,[1]; [27],106%
same,remaining activity at 1.25 µM,[2]; [27],105%
CN1[C@@H]2CC[C@H]1C[C@@H](OC(=O)c1c[nH]c3ccccc13)C2 [Tropisetron (Hydrochloride)],remaining activity at 3.75 µM,[1]; [28],102%
same,remaining activity at 1.25 µM,[2]; [28],100%
CN1[C@@H]2CC[C@H]1C[C@@H](OC(=O)c1c[nH]c3ccccc13)C2 [Tropisetron],remaining activity at 3.75 µM,[1]; [29],101%
same,remaining activity at 1.25 µM,[2]; [29],99.1%
same,remaining activity at 1.25 µM,"[2]; Well no.=6607, read-out: % of control remaining",103%
O=C(O[C@H]1C[C@H]2CC[C@@H](C1)[N+]21CCCC1)C(O)(c1ccccc1)c1ccccc1 [Trospium (chloride)],remaining activity at 3.75 µM,[1]; [30],102%
same,remaining activity at 1.25 µM,[2]; [30],103%
O=C(O[C@H]1C[C@H]2CC[C@@H](C1)[N+]21CCCC1)C(O)(c1ccccc1)c1ccccc1 [Trospium chloride (Sanctura)],remaining activity at 3.75 µM,[1]; [31],90.4%
same,remaining activity at 1.25 µM,[2]; [31],97.3%
C[C@@H]1O[C@@H](OC[C@H]2O[C@@H](Oc3c(-c4ccc(OCCO)c(OCCO)c4)oc4cc(OCCO)cc(O)c4c3=O)[C@H](O)[C@@H](O)[C@@H]2O)[C@H](O)[C@H](O)[C@H]1O [Troxerutin],remaining activity at 3.75 µM,[1]; [32],93.8%
same,remaining activity at 1.25 µM,[2]; [32],95.4%
NCCc1c[nH]c2ccccc12 [Tryptamine hydrochloride],remaining activity at 3.75 µM,[1]; [33],96.5%
same,remaining activity at 1.25 µM,[2]; [33],97.7%
NCCc1c[nH]c2ccccc12 [Tryptamine],remaining activity at 3.75 µM,[1]; [34],99.2%
same,remaining activity at 1.25 µM,[2]; [34],97.9%
O=C1c2ccccc2-n2c1nc1ccccc1c2=O [Tryptanthrin],remaining activity at 3.75 µM,[1]; [35],100%
same,remaining activity at 1.25 µM,[2]; [35],96.9%
COc1cc(C(=O)O[C@H]2C/C(C)=C/CC/C(C)=C/[C@H](O)[C@@H]2C(C)C)ccc1O [Tschimganidin],remaining activity at 3.75 µM,[1]; [36],100%
same,remaining activity at 1.25 µM,[2]; [36],89.2%
COc1cc(C(=O)O[C@H]2C[C@@H]3CC[C@]2(C)C3(C)C)ccc1O [Tschimganine],remaining activity at 3.75 µM,[1]; [37],104%
same,remaining activity at 1.25 µM,[2]; [37],104%
